≈ marks a conversion by molar mass, not a printed value.
Experiments:
[1] = Automated CellTiter-Glo luminescent cell viability (cytotoxicity) assay, 5 d; conditions: mouse
Procedure: The CellTiter-Glo® luminescent cell viability assay (Promega, Cat. No. G7573) was automated in 96-well format on the lab automation platform Fluent® (Tecan, Männedorf, Switzerland). The procedure allowed the testing of six compounds in mESC-D3 and NIH/3T3 cells in parallel. On the first day, PBS was dispensed into the peripheral wells of the assay plates (200 μl/well) using the Multiple Channel Arm (MCA). Mouse ES-D3 and NIH/3T3 cells were plated (50 μl/well, 1 × 10^4 cells/ml)) using the Flexible Channel Arm (FCA) and transported into the Cytomat™ 10 (Thermo Fisher Scientific) for incubation using the Robotic Gripper Arm (RGA). A 7-point dilution series of the test compounds and control solutions were prepared in PBS or DMSO (Carl Roth, Cat. No. HN47.1) under the laminar flow, transferred to a 96-well 0.5-ml Masterblock plate (Greiner bio-one, Cat. No. 786261) and placed on the worktable. On the Fluent the compounds were transferred to a 96-well 2-ml Masterblock plate (Greiner bio-one, Cat. No. 780271) and further diluted in growth media using the FCA. Two hours after cell plating compounds and controls were transferred to the assay plate with the FCA (150 μl/well) and transported back in the Cytomat 10. On day three of the assay, the media was exchanged using the MCA: old media was aspirated and dispensed into a 96-deep-well plate (“waste”), freshly prepared compound, and control solution was dispensed into the assay plate. After two more days of incubation, the cell viability was determined using the CellTiter-Glo assay. The assay plates were transported from the Cytomat 10 to the Carousel (Tecan) to adapt to room temperature. After 25 min the cell supernatant was removed partially (80 μl/well) and CellTiter-Glo reagent was dispensed (50 μl/well). The assay plate was placed on a shaker for 1 min and afterward incubated 25 min in the Carousel before the Luminescence signal was detected on the Infinite M1000 Pro plate reader (Tecan).
(§1) Toxicity data from the MTT and CellTiter-Glo Assay was normalized against the vehicle control (100% viability) and plotted against the logarithmic compound concentration.

[2] = Manual MTT cell viability assay, 7 d; type: cell-based, mouse; conditions: mouse, manual, in brackets the two individual experiments
Procedure: (§2) The MTT cell viability assay was performed as described (Seiler and Spielmann [2011]) with modifications. In brief, 96-well cell culture plates were coated with gelatin (0.1%) before plating mESC-D3. All peripheral wells of the assay plate were filled with 200 μl growth media (“blank”). Afterward, NIH/3T3 and mESC-D3 were plated in growth media (1 × 10^4 cells/ml, 50 μl/well). […] Vehicle (PBS) and positive control (5-fluorouracil) wells were also included on all assay plates. Three and 5 days after seeding the cell supernatant was replaced by freshly prepared compound solution (200 μl/well). Seven days after seeding the cell viability was detected. Therefore, the cell supernatant was aspirated from all wells, MTT solution (5 mg/ml) was added (20 μl/well) and the assay plate was incubated for 2 h at 37 °C and 5% CO2 in a humidified atmosphere. Afterward, all liquid was removed from the wells and MTT desorb solution (0.7% SDS in 2-propanol (Carl Roth, Cat. No. 9866.5), pre-warmed to 37 °C) was dispensed (130 μl/well). The assay plate was placed on a shaker for 15 min. Remaining precipitates were suspended by pipetting up and down with a multichannel pipette before measuring the absorption at 570 nm on a microtiter plate reader using 630 nm as a reference wavelength.
as §1

[3] = Manual CellTiter-Glo luminescent cell viability assay (7 d or 5 d); type: cell-based, mouse; conditions: mouse, in brackets the two individual experiments
Procedure: 96-well cell culture plates were coated with gelatin (0.1%) before plating mESC-D3. All peripheral wells of the assay plate were filled with 200 μl growth media. In order to assess compound toxicity on mESC-D3 and NIH/3T3 cells, cell suspensions of NIH/3T3, and mESC-D3 were prepared in growth media (1 × 10^4 cells/ml) and were transferred to all remaining wells (50 μl/well). A 7-point dilution series in growth media was prepared for each test compound and was transferred to the assay plate 2 h after cell seeding (150 μl/well). Afterward, the cells were incubated in a humidified atmosphere at 37 °C and 5% CO2. Three and 5 days after seeding the cell supernatant was replaced by freshly prepared compound solution (200 μl/well). […] The assay plate was placed on a shaker for 1 min and after another 10 min incubation at room temperature in the dark the luminescence signal was detected on a plate reader.
as §1

mESC-D3 [4] = assay: Conventional mouse ES-D3 differentiation assay in hanging drop format (petri dish; cardiomyocyte contraction, day 10); type: cell-based; conditions: manual; beating cardiomyocytes at day 10; in brackets the two individual experiments
Procedure: Separate Petri dishes were used for each concentration of test compound, untreated control, and solvent control. […] The EB suspension was incubated for 2 days. On day five of the assay, a fresh compound dilution series was prepared in media and transferred into 24-well cell culture plates (1 ml/well, Greiner bio-one, Cat. No. 662641). A separate 24-well plate was used for each compound concentration, untreated control, and solvent control (24 wells per condition). One EB was transferred from the Petri dish into each well of the 24-well plate. After further 5 days of incubation (= day 10 of the assay), cardiomyocyte contraction was determined in each well under the light microscope.

[5] = Manual human EST cytotoxicity assay, MTT, 5 d; conditions: human
Procedure: (§3) The cytotoxicity assessment with a reduced assay time of 5 days combined with either NADH- or ATP-based detection was also carried out with human induced pluripotent stem cells (hiPSCs). […] Furthermore, differences in the cytotoxicity effects between the hiPSCs and HDFfs were more pronounced than in the mouse cells. Similar to the cytotoxicity-based assay the overall variance in the data is reduced when viability data was obtained by an ATP-based read-out.
as §2
(§4) Figure S1: Step-wise evolution of the cytotoxicity assay towards the use of human cell lines. Related to Figure 2. Cytotoxicity assays were carried out with two compound sets on hiPSC line ZIPi013-E and HDFf, from which they were derived. […] A) 5 day MTT assay and manual handling. B) As in A), but using CellTiter-Glo® viability assay. All points in the graph represent the mean of 6 individual data points, including the standard error.

[6] = Manual human EST cytotoxicity assay, CellTiter-Glo, 5 d; conditions: human
Procedure: as §3
96-well cell culture plates were coated with gelatin (0.1%) before plating mESC-D3. All peripheral wells of the assay plate were filled with 200 μl growth media. In order to assess compound toxicity on mESC-D3 and NIH/3T3 cells, cell suspensions of NIH/3T3, and mESC-D3 were prepared in growth media (1 × 10^4 cells/ml) and were transferred to all remaining wells (50 μl/well). A 7-point dilution series in growth media was prepared for each test compound and was transferred to the assay plate 2 h after cell seeding (150 μl/well). Afterward, the cells were incubated in a humidified atmosphere at 37 °C and 5% CO2. Three and 5 days after seeding the cell supernatant was replaced by freshly prepared compound solution (200 μl/well). Seven days after seeding the assay plate was taken out of the incubator and located at room temperature for 10 min, before cell supernatant was aspirated (80 μl/well) and CellTiter-Glo® reagent was dispensed (50 μl/well). The assay plate was placed on a shaker for 1 min and after another 10 min incubation at room temperature in the dark the luminescence signal was detected on a plate reader.
as §4

mESC-D3 [7] = system: mESC-D3; set-up: method as in Scholz et al. [1999]; conditions: ZEBET value, 7 d result; ref Scholz et al. [1999]; cited from earlier work
NIH/3T3 = system: NIH/3T3; set-up: method as in Scholz et al. [1999]; conditions: ZEBET value, 7 d result; ref Scholz et al. [1999]; cited from earlier work
mESC-D3 [8] = system: mESC-D3; set-up: method as in Scholz et al. [1999]; conditions: ZEBET value printed beside hanging drop differentiation result; ref Scholz et al. [1999]; cited from earlier work
[9] = system: mESC-D3 and NIH/3T3 cells; conditions: manual murine EST assay; prediction model of Seiler and Spielmann 2011
[10] = mESC-D3 cells (mouse embryonic stem cells)
[11] = NIH/3T3 cells, read-out: Cytotoxicity assay MTT, 7 d IC50 NIH/3T3
[12] = mESC-D3 cells, read-out: Cytotoxicity assay MTT, 7 d IC50 mESC-D3
[13] = NIH/3T3 cells, read-out: Cytotoxicity assay CTG, 5 d IC50 NIH/3T3
[14] = NIH/3T3 cells, read-out: Cytotoxicity assay CTG, 7 d IC50 NIH/ 3T3
[15] = mESC-D3 cells, read-out: Cytotoxicity assay CTG, 5 d IC50 mESC-D3
[16] = mESC-D3 cells, read-out: Cytotoxicity assay CTG, 7 d IC50 mESC-D3
[17] = HDFf (human dermal fibroblasts of fetal origin)

Row | SMILES | IC50 at 5 d ([1]; NIH/3T3 cells) [µg/mL] | IC50 at 5 d [1, 10] [µg/mL] | IC50 at 7 d [2, 11] [µg/mL] | IC50 at 7 d [2, 12] [µg/mL] | IC50 at 5 d [3, 13] [µg/mL] | IC50 at 7 d [3, 14] [µg/mL] | IC50 at 5 d [3, 15] [µg/mL] | IC50 at 7 d [3, 16] [µg/mL] | Differentiation assay in hanging drop (petri dish) ID50 mESC-D3 (mESC-D3 [4]) | IC50 at 5 d [5, 17] [µg/mL] | IC50 at 5 d ([5]; hiPSC line ZIPi013-E) [µg/mL] | IC50 at 5 d [6, 17] [µg/mL] | IC50 at 5 d ([6]; hiPSC line ZIPi013-E) [µg/mL] | IC50 mESC-D3 (ZEBET) (mESC-D3 [7]) [µg/mL] | IC50 NIH/3T3 (ZEBET) (NIH/3T3) [µg/mL] | ID50 mESC-D3 (ZEBET) (mESC-D3 [8]) [µg/mL] | Compound classification [9]
1 | CC1(C)S[C@@H]2[C@H](NC(=O)Cc3ccccc3)C(=O)N2[C@H]1C(=O)O [Penicillin G, penicillin G] | > 1000 | > 1000 | > 1000 | > 1000 | 992 (≈ 2970 µM) | > 1000 | > 1000 | > 1000 | 1000 (> 1000; > 1000) µg/ml | 822 (≈ 2460 µM) | 750 (≈ 2240 µM) | 795 (≈ 2380 µM) | > 1000 | 2950 (≈ 8820 µM) | 1586 (≈ 4740 µM) | 3450 (≈ 10300 µM) | 
2 | O=c1[nH]cc(F)c(=O)[nH]1 [5-Fluorouracil, 5-fluorouracil] | 0.11 (≈ 0.846 µM) | 0.0627 (≈ 0.482 µM) | 0.116 (≈ 0.892 µM) | 0.0395 (≈ 0.304 µM) | 0.0958 (≈ 0.736 µM) | 0.128 (≈ 0.984 µM) | 0.0493 (≈ 0.379 µM) | 0.0681 (≈ 0.524 µM) |  | 0.195 (≈ 1.5 µM) | 0.223 (≈ 1.72 µM) | 0.186 (≈ 1.43 µM) | 0.0166 (≈ 0.128 µM) | 0.103 (≈ 0.792 µM) | 0.17 (≈ 1.31 µM) | 0.0289 (≈ 0.222 µM) | strong embryotoxicity

Reference: PMC8012336, “An automated and high-throughput-screening compatible pluripotent stem cell-based test platform for developmental and reproductive toxicity assessment of small molecule compounds” (Cell Biology and Toxicology, 2020)
